The results in this text go back to article PMC10892375, “Determination of the Cannabinoid CB1 Receptor’s Positive Allosteric Modulator Binding Site through Mutagenesis Studies” (Pharmaceuticals, 2024).

Entries after “also recorded” stand apart in the source; their conditions may differ.

Holding throughout (format): cell-based
In one assay the target is T1, hCB1 mutant L209A^3.45 (Homo sapiens, UniProt P21554, L209A).
T1 construct: expressed in transfected cells; host or cells: HEK293
Put plainly: pIRES G protein dissociation BRET assay, L209A mutant. The following applies: for G protein dissociation, AUC of 10 μM compound (maximal response): 10 μM ligand alone. The method, then: (§1) Mutagenesis studies using the pIRES G protein dissociation assay were performed using human embryonic kidney 293 (HEK293) wild-type cells transiently transfected with pplss-3HA-hCB1 [31] or modified receptor. All cells were cultured in Dulbecco’s Modified Eagle’s Medium (DMEM) supplemented with 10% fetal bovine serum (FBS), grown in […] vented-cap flasks, and maintained in a 37° C incubator at 5% CO2.
(§2) Mutants of pplss-3HA-hCB1 (WT, pEF-V4-HisA (pEF4a) construct) were generated using a modified QuikChange® (Stratagene, San Diego, CA, USA) site-directed mutagenesis approach using KAPA HiFi Hotstart Polymerase (KAPA Biosystems, Roche, Basel, Switzerland). Briefly, single-stranded primers used to modify one or two base pairs within the target amino acid using PCR were purchased from Integrated DNA Technologies (IDT, Coralville, IA, USA). All pplss-hCB1 mutants were generated using the pplss-3HA-hCB1 pEF4a as parental DNA. PCR products were generated using recommended cycling conditions and treated with Dpn1 (New England Biolabs, Ipswich, MA, USA) overnight at 37° C to digest methylated parental DNA. PCR products were electrophoresed and run on an agarose gel (1% (w.v^−1) agarose, HydraGene, Piscataway, NJ, USA) containing 0.25 μg/mL ethidium bromide (Sigma-Aldrich, St. Louis, MO, USA). Gels were run in 40 mM TRIS-acetate buffer containing […] (pH 8.3) at 100 V for 30 min, maximum current and included a 1kb+ DNA ladder (Invitrogen, Thermo Fisher Scientific, Carlsbad, CA, USA) for reference. Gels were imaged using an UVTech Alliance Q9 Mini transilluminator (UVTech Alliance, Cambridge, UK). Digested products were then used to transform NEB 5α competent E. coli cells in accordance with manufacturer’s instructions. Briefly, transformed PCR products were grown overnight on 8.5 mL Luria Broth agar plates (containing 100 μg/mL ampicillin) at 37° C. Single bacterial colonies were picked and inoculated in Luria Broth (containing 100 μg/mL ampicillin) and grown overnight in a shaking incubator at 37° C. Plasmids were then harvested and purified using a Qiagen miniprep kit (Qiagen, Hilden, Germany) and validated using sequencing (Genetics Analysis Service, University of Otago, Dunedin, New Zealand).
(§3) Dissociation of the G protein heterotrimer, specifically Gαi1, Gβ1, and Gγ2, was investigated using a bioluminescence resonance energy transfer (BRET) assay with the pIRES biosensor first described by and adapted by.
(§4) Briefly, 3 × 10^6 WT HEK293 cells were seeded into 10 cm culture dishes (Corning, Corning, NY, USA; one dish for the control receptor and one for each modified receptor) and incubated at 37 °C for 24 h to gain 50–60% confluency. Culture medium was then replaced and transfection mixtures containing 3 μg pIRES vector and 1 μg receptor (either pplss-hCB1 or modified receptor) were prepared (4 μg total DNA). Plasmids were initially diluted in sterile Milli-Q water before being diluted in OptiMEM reduced serum medium (Thermo Fisher Scientific, Waltham, MA, USA) and combined with […] polyethylenimine (PEI)-max (1:9 DNA:PEI-max ratio) and incubated at room temperature for 20 min. Transfection mixtures were then added to cells via dropwise addition, and cells were incubated at 37 °C for 24 h. Transfected cells were lifted and plated at 50,000 cells/well into poly-d-lysine (PDL; Sigma-Aldrich) coated white 96-well CulturPlates (PerkinElmer, Waltham, MA, USA) and incubated for a further 24 h at 37 °C.
To assay, the culture medium was aspirated and cells were washed with phosphate buffered saline (PBS) and replaced with BRET assay medium (phenol red free DMEM containing 25 mM HEPES and supplemented with 1 mg/mL bovine serum albumin; BSA, MP Biomedicals, Auckland, New Zealand) for 30 min prior to drug addition (serum starve). Drugs were prepared at 10 × concentration in BRET assay medium, combined in a polypropylene V-bottom plate, and incubated at 37° C prior to drug stimulation. […]
(In BRET a luciferase serves as donor, and the signal depends on an acceptor being close.)

Another assay addresses T2, hCB1 mutant R148A^12.51 (Homo sapiens, UniProt P21554, R148A).
T2 construct: expressed in transfected cells; host or cells: HEK293
The assay is described as follows: pIRES G protein dissociation BRET assay, R148A mutant. The following applies: for G protein dissociation, AUC of 10 μM compound (maximal response): 10 μM ligand alone; for Increase in the potency of CP55940-induced G protein dissociation: 10 μM allosteric ligand. The method, then: as §1, §2, §3, §4
(§5) To assay, the culture medium was aspirated and cells were washed with phosphate buffered saline (PBS) and replaced with BRET assay medium (phenol red free DMEM containing 25 mM HEPES and supplemented with 1 mg/mL bovine serum albumin; BSA, MP Biomedicals, Auckland, New Zealand) for 30 min prior to drug addition (serum starve). Drugs were prepared at 10 × concentration in BRET assay medium, combined in a polypropylene V-bottom plate, and incubated at 37° C prior to drug stimulation.

The next assay has as its target T3, hCB1 mutant I169A^2.56 (Homo sapiens, UniProt P21554, I169A).
T3 construct: expressed in transfected cells; host or cells: HEK293
Put plainly: pIRES G protein dissociation BRET assay, I169A mutant. The conditions noted are these: for Allosteric modulation of CP55940 (PAM activity): 10 μM allosteric ligand; for Allosteric modulation of CP55940 (PAM activity) / Allosteric agonism: G protein dissociation in the absence of an orthosteric ligand: result in words; for G protein dissociation, AUC of 10 μM compound (maximal response): 10 μM ligand alone; for Allosteric agonism: G protein dissociation in the absence of an orthosteric ligand: 10 μM. The protocol: as §1, §2, §3, §4, §5

Setting [1] is: 10 μM CP55940 in the presence of 10 μM ZCZ011.
Where [2] appears, read: in the presence of 10 μM GAT228.
Where [3] appears, read: in the presence of 10 μM GAT229.
Where [4] appears, read: top of the curve (maximal response).

T1 sequence (P21554 whole entry L209A): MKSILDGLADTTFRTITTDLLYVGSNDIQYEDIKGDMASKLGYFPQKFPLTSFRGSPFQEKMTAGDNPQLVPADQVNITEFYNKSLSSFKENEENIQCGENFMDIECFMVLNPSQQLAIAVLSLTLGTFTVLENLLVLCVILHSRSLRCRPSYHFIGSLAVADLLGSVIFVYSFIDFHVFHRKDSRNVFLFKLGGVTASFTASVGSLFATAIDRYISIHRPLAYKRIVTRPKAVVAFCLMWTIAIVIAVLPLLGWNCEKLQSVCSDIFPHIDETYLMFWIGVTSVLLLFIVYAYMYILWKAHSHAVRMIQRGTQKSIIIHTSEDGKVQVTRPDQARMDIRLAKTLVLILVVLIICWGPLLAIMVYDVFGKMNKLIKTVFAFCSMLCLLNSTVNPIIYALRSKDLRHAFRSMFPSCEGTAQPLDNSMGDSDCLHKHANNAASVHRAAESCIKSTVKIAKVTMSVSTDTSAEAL
T2 sequence (P21554 whole entry R148A): as the sequence (P21554 whole entry L209A) above, with R148A, A209L counted along it
T3 sequence (P21554 whole entry I169A): as the sequence (P21554 whole entry L209A) above, with I169A, A209L counted along it

`Cc1ccc2c(C(C[N+](=O)[O-])c3cccs3)c(-c3ccccc3)[nH]c2c1` (centres unmarked) [ZCZ011, 6-Methyl-3-(2-nitro-1-(thiophen-2-yl)ethyl)-2-phenyl-1 H-indole]: the “G protein dissociation, AUC of 10 μM compound (maximal response)” value (from here on “G protein dissociation … (maximal response)”) at hCB1 mutant L209A^3.45 is −34.4 ± 2.9. Also, at hCB1 mutant R148A^12.51, the “G protein dissociation … (maximal response)” value is reported as −150.1 ± 10.2. At hCB1 mutant I169A^2.56, the “Allosteric modulation of CP55940 (PAM activity)” value is recorded as “neither allosteric ligand acted as a PAM”; the “G protein dissociation … (maximal response)” value is reported as −20.0 ± 9.0; the “Allosteric agonism: G protein dissociation in the absence of an orthosteric ligand” value (“Allosteric agonism” below) was “abolished; also recorded: substantial reduction in G protein dissociation”.

`O=[N+]([O-])C[C@@H](c1ccccc1)c1c(-c2ccccc2)[nH]c2ccccc12` [GAT229]: the “G protein dissociation … (maximal response)” value on hCB1 mutant L209A^3.45 is −25.1 ± 3.5. At hCB1 mutant R148A^12.51, the “Increase in the potency of CP55940-induced G protein dissociation” value is reported as “less than 0.5 log units” and the “G protein dissociation … (maximal response)” value was −148.5 ± 7.7. In addition, on hCB1 mutant I169A^2.56, the “Allosteric modulation of CP55940 (PAM activity)” value is recorded as “neither allosteric ligand acted as a PAM”; the “G protein dissociation … (maximal response)” value was 54.8 ± 7.5; the “Allosteric agonism” value was “abolished; also recorded: inhibited constitutive G protein dissociation”.

On to `CCCCCCC(C)(C)c1ccc([C@@H]2C[C@H](O)CC[C@H]2CCCO)c(O)c1` [CP55940], for which the “G protein dissociation, AUC, 10 μM CP55940 + 10 μM ZCZ011” value at hCB1 mutant L209A^3.45 (setting [1]) is recorded as −71.3 ± 4.2; at hCB1 mutant R148A^12.51 (setting [1]), −237.3 ± 11.6. The “G protein dissociation … (maximal response)” value on hCB1 mutant L209A^3.45 is recorded as −42.7 ± 2.8; on hCB1 mutant I169A^2.56, −113.1 ± 11.7. Besides, the entries for the “EMAX, CP55940 + 10 μM GAT228” value at hCB1 mutant L209A^3.45 (setting [2]), on hCB1 mutant R148A^12.51 (setting [2]) and on hCB1 mutant I169A^2.56 (setting [2]) were −43.2 ± 4.5 ∆BRET.sec, −218.2 ± 8.5 ∆BRET.sec and −117.0 ± 7.4 ∆BRET.sec, respectively. The results for the “EMAX, CP55940 + 10 μM GAT229” value at hCB1 mutant L209A^3.45 (setting [3]), on hCB1 mutant R148A^12.51 (setting [3]) and on hCB1 mutant I169A^2.56 (setting [3]) were −51.9 ± 2.8 ∆BRET.sec, −243.9 ± 5.4 ∆BRET.sec and −109.7 ± 8.3 ∆BRET.sec, respectively. Further, the “EMAX, CP55940 Alone” value is reported as −39.8 ± 1.1 ∆BRET.sec at hCB1 mutant L209A^3.45 (setting [4]), −175.6 ± 11.4 ∆BRET.sec at hCB1 mutant R148A^12.51 (setting [4]) and −110.7 ± 10.3 ∆BRET.sec at hCB1 mutant I169A^2.56 (setting [4]).

Take `O=[N+]([O-])C[C@H](c1ccccc1)c1c(-c2ccccc2)[nH]c2ccccc12` [GAT228]: on hCB1 mutant L209A^3.45, the “G protein dissociation … (maximal response)” value was −19.0 ± 3.3. At hCB1 mutant R148A^12.51, the “Increase in the potency of CP55940-induced G protein dissociation” value is “less than 0.5 log units” and the “G protein dissociation … (maximal response)” value was −102.7 ± 11.8. Further, at hCB1 mutant I169A^2.56, the “G protein dissociation … (maximal response)” value worked out at 30.0 ± 5.9 and the “Allosteric agonism” value was “abolished; also recorded: inhibited constitutive G protein dissociation”.
